“And” between values parts separate entries of the source, which are not always exact repeats. Identical values can stand only once.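 48-hour exposure; five concentrations; linearly interpolated endpoints. GI50 is the concentration that inhibits growth by half. TGI is the concentration that stops growth completely.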
Columns and labels:
Experiment in all cases: NCI-60 cell line screen, 48 h
M14 melanoma = system: M14 melanoma
SK-OV-3 ovarian = system: SK-OV-3 ovarian
MOLT-4 leukemia = system: MOLT-4 leukemia
TK-10 renal = system: TK-10 renal
NCI/ADR-RES ovarian = system: NCI/ADR-RES ovarian
SK-MEL-5 melanoma = system: SK-MEL-5 melanoma
K-562 leukemia = system: K-562 leukemia
UO-31 renal = system: UO-31 renal
NCI-H226 lung = system: NCI-H226 lung
COLO 205 colon = system: COLO 205 colon

Compound	TGI (M14 melanoma)	TGI (SK-OV-3 ovarian)	TGI (MOLT-4 leukemia)	TGI (TK-10 renal)	TGI (NCI/ADR-RES ovarian)	TGI (SK-MEL-5 melanoma)	TGI (K-562 leukemia)	TGI (UO-31 renal)	TGI (NCI-H226 lung)	TGI (COLO 205 colon)	GI50 (M14 melanoma)	GI50 (SK-OV-3 ovarian) [µM]	GI50 (MOLT-4 leukemia)	GI50 (TK-10 renal)	GI50 (NCI/ADR-RES ovarian)	GI50 (SK-MEL-5 melanoma)	GI50 (K-562 leukemia)	GI50 (UO-31 renal)	GI50 (NCI-H226 lung)	GI50 (COLO 205 colon)
Clc1ccc(-c2c(C3=NCCCN3)nnn2-c2ccc(Cl)cc2)cc1	31.3 µM	> 100 µM	60.9 µM	> 77.5 µM	> 86.4 µM	35.9 µM	48.5 µM	90.4 µM	> 100 µM	32.8 µM	–	–	–	–	–	–	–	–	–	–
COC(=O)C12C3C4C1C1C2C3C41NC(=O)c1csc([C@@H](C[C@H](C(C)C)N(C)C(=O)[C@@H](NC(=O)[C@H]2CCCCN2C)C2CC2)OC(C)=O)n1 (stereo partly drawn)	–	> 33.3 µM	> 33.3 µM	> 33.3 µM	> 33.3 µM	0.526 µM	> 33.3 µM	> 33.3 µM	> 33.3 µM	0.379 µM	0.0253 µM	0.148	0.00729 µM	4.39 µM	2.7 µM	0.00977 µM	0.00569 µM	0.35 µM	0.395 µM	0.00727 µM
Cc1ccc(NC(=O)c2sc3nc(C)c(C(O)c4ccccc4)cc3c2N)cc1 (stereo not drawn)	26.1 µM	30.6 µM	> 100 µM	36.4 µM	18.9 µM	> 41.8 µM	> 100 µM	41.6 µM	41.2 µM	> 21.8 µM	0.284 µM	0.768	0.643 µM	2.12 µM	0.39 µM	0.417 µM	0.333 µM	0.72 µM	1.27 µM	0.573 µM
Cc1ccc2c(c1)CN(C(=O)CCC(=O)OCc1ccccc1)c1ccc(C)cc1CN2C(=O)CCC(=O)OCc1ccccc1	> 100 µM	> 100 µM	> 100 µM	> 100 µM	> 100 µM	> 100 µM	> 100 µM	–	> 100 µM	> 100 µM	–	–	–	–	–	–	–	–	–	–
CC(C)(C)c1cc(NC(=O)Cc2ccc(-c3cnc4cc(-c5cnn(CCN6CCOCC6)c5)ccc4n3)cc2)no1	50 µM and > 100 µM and > 3 µM	2.66 µM	50 µM and > 100 µM and > 3 µM	50 µM and > 100 µM and > 3 µM	50 µM and > 100 µM and > 3 µM	50 µM and 11.3 µM and > 0.95 µM	50 µM and > 100 µM and > 3 µM	–	50 µM and > 100 µM and > 3 µM	50 µM and > 3 µM	0.202 µM and 0.37 µM and 0.0419 µM	0.369	0.26 µM and 0.429 µM and 0.115 µM	–	1.08 µM and 0.745 µM and 0.117 µM	0.612 µM and 0.674 µM and 0.232 µM	0.216 µM and 0.307 µM and 0.0848 µM	0.135 µM and 0.0883 µM	0.223 µM and 0.533 µM and 0.0783 µM	0.836 µM and 0.0931 µM
CC[CH2][Sn]([Cl])([Cl])[CH2]CC.Oc1ccccc1C=NCCN=Cc1ccccc1O	19.3 µM	35.1 µM	> 100 µM	–	37.8 µM	17.5 µM	> 100 µM	21.5 µM	12.6 µM	10.1 µM	5.49 µM	17.2	4.88 µM	–	16 µM	4.87 µM	2.53 µM	5.45 µM	3.13 µM	2.97 µM
Cc1ccc2c3c(c(=O)[nH]c2c1)C1(C(C#N)=C(N)O3)c2cc(Br)ccc2-c2ccc(Br)cc21	17 µM	6.45 µM	10.1 µM	6.09 µM	> 100 µM	24.1 µM	12.6 µM	2.74 µM	4.6 µM	3.82 µM	4.23 µM	2.47	2.92 µM	2.31 µM	6.82 µM	10.2 µM	2.96 µM	1.33 µM	1.9 µM	1.87 µM
Fc1ccc(-c2nn3ncccc3c2-c2ccnc(Nc3ccc4c(c3)OCCO4)n2)cc1	> 25 µM	> 25 µM	> 22.4 µM	9.93 µM	> 25 µM	9.51 µM	> 25 µM	> 25 µM	> 18.9 µM	> 25 µM	7.81 µM	1.23	4.8 µM	1.35 µM	5.73 µM	3.99 µM	2.68 µM	0.581 µM	5.76 µM	1.42 µM
CON(C)C(=O)N1N=C(c2cc(F)ccc2F)SC1(CCCN)c1ccccc1 (stereo not drawn)	11.2 µM and 4.38 µM	12.6 µM and 12.8 µM	20 µM and 18.2 µM	18.8 µM and 17.7 µM	5.34 µM and 2.87 µM	12.2 µM and 12.6 µM	15.1 µM and 14.3 µM	21.8 µM and 20.5 µM	27.3 µM and 28.3 µM	–	< 0.01 µM	< 0.01	0.0547 µM and < 0.01 µM	3.19 µM and 2.33 µM	0.544 µM and 0.122 µM	< 0.01 µM	< 0.01 µM	3.37 µM and 2.21 µM	12 µM and 12.5 µM	< 0.01 µM
O=C(/C=C\n1cnc(-c2cc(C(F)(F)F)cc(C(F)(F)F)c2)n1)NNc1cnccn1	9.04 µM	25.3 µM	> 100 µM	16.5 µM	27.1 µM	2.22 µM	> 38.3 µM	12.8 µM	3.05 µM	5.28 µM	0.311 µM	0.643	0.0312 µM	0.466 µM	0.0933 µM	0.151 µM	0.0594 µM	0.12 µM	0.0384 µM	0.0515 µM
